# According to publication PMC8206213, “An L-2-hydroxyglutarate biosensor based on specific transcriptional regulator LhgR” (Nature Communications, 2021):
# “And” between values parts separate entries of the source, which are not always exact repeats. Equal entries are not always repeated.
# What was measured:
# LhgR = experiment: EMSA, effect of compounds on LhgR binding to the lhgR promoter region F2; design: species or system Pseudomonas putida W619; details: 30 mM compound, 10 nM F2, 70 nM LhgR
# Protocol: Electrophoretic mobility shift assays (EMSAs) were carried out using the DNA fragment (F1 or F2) and purified LhgR. The DNA fragments were first amplified by primer pairs F1-F/F1-R and F2-F/F2-R, respectively. Then, either fragment at a concentration of 10 nM DNA was incubated with LhgR (0–160 nM) in 20 μL EMSA binding buffer (10 mM Tris-HCl [pH 7.4], 50 mM KCl, 0.5 mM EDTA, 10% [vol/vol] glycerol, and 1 mM dithiothreitol [DTT]). The binding reactions were carried out at 30 °C for 30 min. Electrophoresis was performed on 6% native polyacrylamide gels at 4 °C and 170 V (constant voltage) for about 45 min, followed by staining with SYBR green I (TaKaRa, China) and photographing. Analysis of the interaction between lhgO promoter region (F1) and LHGFR was performed using the same procedure.
# To characterize the effector of LhgR, purified LhgR was first incubated with L-lysine, 5-aminovalerate, glutarate, L-2-HG, D-2-HG, 2-KG, or succinate at 30 °C for 15 min, followed by incubation with the added DNA fragments at 30 °C for 30 min. The mixtures were subsequently subjected to electrophoresis.
# [1] = Dose-response of purified LHGFR and its variants for L-2-HG in 50 mM Tris-HCl buffer (pH 7.4), Venus/mTFP emission ratio; format: binding
# Protocol: Purified L-2-HG biosensors and different compounds were diluted by 50 mM Tris-HCl buffer (pH 7.4), mixed together in a black 96-well plate at a volume ratio of 3:1, and the fluorescence intensities were measured using an EnSight microplate reader (PerkinElmer, USA) with excitation at 430 nm, emission at 485 nm (mTFP) and 528 nm (Venus). The dose-response curves were fitted by OriginPro 2016 software (OriginLab) according to the following formula:1 R=Rmax+Rmin−Rmax/1+([L-2-HG]/Kd)^p where R, Rmin, and Rmax refer to the emission ratio of Venus to mTFP, ratio in the absence of L-2-HG, and ratio at saturation with L-2-HG, respectively. The [L-2-HG], Kd, and p refer to the L-2-HG concentration, apparent dissociation constant, and Hill slope, respectively. Emission spectra were recorded at 430 nm excitation, in steps of 2 nm. Excitation spectra were recorded using emission at 550 nm, excitation from 380 to 535 nm in steps of 2 nm.
structure (smiles),measurement,setting,value
"O=C(O)CC[C@H](O)C(=O)O [L-2-HG, L-2-Hydroxyglutarate]",Effect on LhgR binding to the lhgR promoter region F2,LhgR,prevent LhgR binding to the lhgR promoter
same,Emission ratio of 528/485,"[1]; For L-2-HG, 2-HG concentration 0.01, Suppl. Fig. 9c",1.3857 and 1.387 and 1.404
same,Emission ratio of 528/485,"[1]; For L-2-HG, 2-HG concentration 0.01, Suppl. Fig. 9d",1.655 and 1.676 and 1.693
same,Emission ratio of 528/485,"[1]; For L-2-HG, 2-HG concentration 0.1, Suppl. Fig. 9c",1.381 and 1.392 and 1.391
same,Emission ratio of 528/485,"[1]; For L-2-HG, 2-HG concentration 0.1, Suppl. Fig. 9d",1.641 and 1.674 and 1.689
same,Emission ratio of 528/485,"[1]; For L-2-HG, 2-HG concentration 0.2, Suppl. Fig. 9c",1.397 and 1.394 and 1.401
same,Emission ratio of 528/485,"[1]; For L-2-HG, 2-HG concentration 0.2, Suppl. Fig. 9d",1.675 and 1.688 and 1.698
same,Emission ratio of 528/485,"[1]; For L-2-HG, 2-HG concentration 1, Suppl. Fig. 9c",1.392 and 1.412 and 1.423
same,Emission ratio of 528/485,"[1]; For L-2-HG, 2-HG concentration 1, Suppl. Fig. 9d",1.753 and 1.778 and 1.797
same,Emission ratio of 528/485,"[1]; For L-2-HG, 2-HG concentration 2, Suppl. Fig. 9c",1.425 and 1.451 and 1.463
same,Emission ratio of 528/485,"[1]; For L-2-HG, 2-HG concentration 2, Suppl. Fig. 9d",1.892 and 1.897 and 1.889
same,Emission ratio of 528/485,"[1]; For L-2-HG, 2-HG concentration 10, Suppl. Fig. 9c",1.602 and 1.628 and 1.623
same,Emission ratio of 528/485,"[1]; For L-2-HG, 2-HG concentration 10, Suppl. Fig. 9d",2.254 and 2.242 and 2.288
same,Emission ratio of 528/485,"[1]; For L-2-HG, 2-HG concentration 20, Suppl. Fig. 9c",1.712 and 1.7343 and 1.752
same,Emission ratio of 528/485,"[1]; For L-2-HG, 2-HG concentration 20, Suppl. Fig. 9d",2.359 and 2.347 and 2.363
same,Emission ratio of 528/485,"[1]; For L-2-HG, 2-HG concentration 100, Suppl. Fig. 9c",1.988 and 1.973 and 1.992
same,Emission ratio of 528/485,"[1]; For L-2-HG, 2-HG concentration 100, Suppl. Fig. 9d",2.568 and 2.652 and 2.688
same,Emission ratio of 528/485,"[1]; For L-2-HG, 2-HG concentration 200, Suppl. Fig. 9c",2.0666 and 2.05 and 2.077
same,Emission ratio of 528/485,"[1]; For L-2-HG, 2-HG concentration 200, Suppl. Fig. 9d",2.563 and 2.676 and 2.688
same,Emission ratio of 528/485,"[1]; For L-2-HG, 2-HG concentration 1000, Suppl. Fig. 9c",2.162 and 2.183 and 2.153
same,Emission ratio of 528/485,"[1]; For L-2-HG, 2-HG concentration 1000, Suppl. Fig. 9d",2.635 and 2.6341 and 2.632
same,Emission ratio of 528/485,"[1]; For L-2-HG, 2-HG concentration 2000, Suppl. Fig. 9c",2.173 and 2.178 and 2.17
same,Emission ratio of 528/485,"[1]; For L-2-HG, 2-HG concentration 2000, Suppl. Fig. 9d",2.667 and 2.655 and 2.697
same,Emission ratio of 528/485,"[1]; Supplementary Fig. 6a, L-2-HG concentration 0.01",1.3857 and 1.387 and 1.404
same,Emission ratio of 528/485,"[1]; Supplementary Fig. 6a, L-2-HG concentration 0.1",1.381 and 1.392 and 1.391
same,Emission ratio of 528/485,"[1]; Supplementary Fig. 6a, L-2-HG concentration 0.2",1.397 and 1.394 and 1.401
same,Emission ratio of 528/485,"[1]; Supplementary Fig. 6a, L-2-HG concentration 1",1.392 and 1.412 and 1.423
same,Emission ratio of 528/485,"[1]; Supplementary Fig. 6a, L-2-HG concentration 2",1.425 and 1.451 and 1.463
same,Emission ratio of 528/485,"[1]; Supplementary Fig. 6a, L-2-HG concentration 10",1.602 and 1.628 and 1.623
same,Emission ratio of 528/485,"[1]; Supplementary Fig. 6a, L-2-HG concentration 20",1.712 and 1.7343 and 1.752
same,Emission ratio of 528/485,"[1]; Supplementary Fig. 6a, L-2-HG concentration 100",1.988 and 1.973 and 1.992
same,Emission ratio of 528/485,"[1]; Supplementary Fig. 6a, L-2-HG concentration 200",2.0666 and 2.05 and 2.077
same,Emission ratio of 528/485,"[1]; Supplementary Fig. 6a, L-2-HG concentration 1000",2.162 and 2.183 and 2.153
same,Emission ratio of 528/485,"[1]; Supplementary Fig. 6a, L-2-HG concentration 2000",2.173 and 2.178 and 2.17
same,Emission ratio of 528/485,"[1]; Supplementary Fig. 6b, L-2-HG concentration 0.01",1.79 and 1.921 and 1.894
same,Emission ratio of 528/485,"[1]; Supplementary Fig. 6b, L-2-HG concentration 0.1",1.777 and 1.91 and 1.94
same,Emission ratio of 528/485,"[1]; Supplementary Fig. 6b, L-2-HG concentration 1",2.057 and 2.207 and 2.255
same,Emission ratio of 528/485,"[1]; Supplementary Fig. 6b, L-2-HG concentration 2",2.268 and 2.379 and 2.449
same,Emission ratio of 528/485,"[1]; Supplementary Fig. 6b, L-2-HG concentration 10",2.5843 and 2.787 and 2.825
same,Emission ratio of 528/485,"[1]; Supplementary Fig. 6b, L-2-HG concentration 20",2.72 and 2.88 and 2.892
same,Emission ratio of 528/485,"[1]; Supplementary Fig. 6b, L-2-HG concentration 100",2.76 and 2.892 and 2.986
same,Emission ratio of 528/485,"[1]; Supplementary Fig. 6b, L-2-HG concentration 1000",2.847 and 2.935 and 2.998
same,Emission ratio of 528/485,"[1]; Supplementary Fig. 6b, L-2-HG concentration 2000",2.912 and 2.995 and 3.032
same,Emission ratio of 528/485,"[1]; Supplementary Fig. 6c, L-2-HG concentration 0.01",1.881 and 1.865 and 1.887
same,Emission ratio of 528/485,"[1]; Supplementary Fig. 6c, L-2-HG concentration 0.1",1.869 and 1.918 and 1.908
same,Emission ratio of 528/485,"[1]; Supplementary Fig. 6c, L-2-HG concentration 1",2.144 and 2.182 and 2.149
same,Emission ratio of 528/485,"[1]; Supplementary Fig. 6c, L-2-HG concentration 2",2.3419 and 2.384 and 2.402
same,Emission ratio of 528/485,"[1]; Supplementary Fig. 6c, L-2-HG concentration 10",2.743 and 2.7667 and 2.84
same,Emission ratio of 528/485,"[1]; Supplementary Fig. 6c, L-2-HG concentration 20",2.846 and 2.91 and 2.871
same,Emission ratio of 528/485,"[1]; Supplementary Fig. 6c, L-2-HG concentration 100",2.914 and 2.957 and 2.953
same,Emission ratio of 528/485,"[1]; Supplementary Fig. 6c, L-2-HG concentration 1000",2.894 and 2.9819 and 2.963
same,Emission ratio of 528/485,"[1]; Supplementary Fig. 6c, L-2-HG concentration 2000",2.899 and 2.986 and 2.9894
same,Emission ratio of 528/485,"[1]; Supplementary Fig. 6e, L-2-HG concentration 0.01",1.655 and 1.676 and 1.693
same,Emission ratio of 528/485,"[1]; Supplementary Fig. 6e, L-2-HG concentration 0.1",1.641 and 1.674 and 1.689
same,Emission ratio of 528/485,"[1]; Supplementary Fig. 6e, L-2-HG concentration 0.2",1.675 and 1.688 and 1.698
same,Emission ratio of 528/485,"[1]; Supplementary Fig. 6e, L-2-HG concentration 1",1.753 and 1.778 and 1.797
same,Emission ratio of 528/485,"[1]; Supplementary Fig. 6e, L-2-HG concentration 2",1.892 and 1.897 and 1.889
same,Emission ratio of 528/485,"[1]; Supplementary Fig. 6e, L-2-HG concentration 10",2.254 and 2.242 and 2.288
same,Emission ratio of 528/485,"[1]; Supplementary Fig. 6e, L-2-HG concentration 20",2.359 and 2.347 and 2.363
same,Emission ratio of 528/485,"[1]; Supplementary Fig. 6e, L-2-HG concentration 100",2.568 and 2.652 and 2.688
same,Emission ratio of 528/485,"[1]; Supplementary Fig. 6e, L-2-HG concentration 200",2.563 and 2.676 and 2.688
same,Emission ratio of 528/485,"[1]; Supplementary Fig. 6e, L-2-HG concentration 1000",2.635 and 2.6341 and 2.632
same,Emission ratio of 528/485,"[1]; Supplementary Fig. 6e, L-2-HG concentration 2000",2.667 and 2.655 and 2.697
same,Emission ratio of 528/485,"[1]; Supplementary Fig. 6d, L-2-HG concentration 0.01",1.72 and 1.724 and 1.742
same,Emission ratio of 528/485,"[1]; Supplementary Fig. 6d, L-2-HG concentration 0.1",1.742 and 1.747 and 1.746
same,Emission ratio of 528/485,"[1]; Supplementary Fig. 6d, L-2-HG concentration 1",1.865 and 1.88 and 1.882
same,Emission ratio of 528/485,"[1]; Supplementary Fig. 6d, L-2-HG concentration 2",2.014 and 2.037 and 2.039
same,Emission ratio of 528/485,"[1]; Supplementary Fig. 6d, L-2-HG concentration 10",2.446 and 2.449 and 2.469
same,Emission ratio of 528/485,"[1]; Supplementary Fig. 6d, L-2-HG concentration 20",2.546 and 2.554 and 2.592
same,Emission ratio of 528/485,"[1]; Supplementary Fig. 6d, L-2-HG concentration 100",2.59 and 2.651 and 2.67
same,Emission ratio of 528/485,"[1]; Supplementary Fig. 6d, L-2-HG concentration 1000",2.653 and 2.699 and 2.7087
same,Emission ratio of 528/485,"[1]; Supplementary Fig. 6d, L-2-HG concentration 2000",2.665 and 2.7183 and 2.7325
